Test results from PMC10412585 (Nature Communications, 2023).
“Also recorded” adds a separate entry of the source.

Key:
[1] = test system: HLA-E; assay: HLA-E surface stabilization assay with RMA-S/HLA-E cells; format: cell-based, human; conditions: peptide 3-300 µM (Fig. 3: 30 µM) in OptiMEM, 16 h, 37 °C, anti-HLA-E 3D12, flow cytometry, n = 4 replicate experiments
Description: To probe top-predicted proteome-derived peptides (Tables 2 and 3) for HLA-E binding, we assessed their ability to stabilize surface-expressed HLA-E on RMA-S/HLA-E cells, a TAP-deficient mouse cell line engineered to express HLA-E and human β2M (Fig. 3 and Supplemental Fig. 8)[47].
Fig. 3 Peptide stabilization of HLA-E surface expression. Assessment of peptide-HLA-E binding via HLA-E surface stabilization assay with RMA-S/HLA-E cells incubated with 30 μM peptide. HLA-E expression is detected with an anti-HLA-E antibody. Measurements from n = 4 replicate experiments are shown, with solid black lines indicating mean values. […] Source data are provided as a Source Data file.
RMA-S/HLA-E cells were incubated with serial dilutions of peptides (3–300 µM, Genscript) in OptiMEM (ThermoFisher) for 16 h at 37 °C. Cells were washed with PBS, stained for HLA-E (Clone 3D12, Biolegend, 1:200 dilution) for 15 min at room temperature and analyzed by flow cytometry (analysis in FlowJo version 10). Peptide UBAC2_275-279 was ordered as a 5mer peptide (WNRLF) given the similarity with other WN peptides and hypothesis of a truncated peptide binding in the HLA-E groove. […] Measurements from replicate experiments are plotted in Fig. 3 and Supplemental Fig. 8.

[2] = test system: NKG2A-/NKG2C+ NK cells; assay: NK cell activation assay with peptide-pulsed K562/HLA-E cells, NKG2A-/NKG2C+ NK cells; format: cell-based, human; conditions: K562/HLA-E target cells, 300 µM peptide ([…] µM BFAR263-271), E:T 2:1, 6 h; degranulation (CD107a), IFN-γ, TNF, CCL3; flow cytometry
Description: (§1) We hypothesized that our predicted proteome-derived peptides could affect NK cell activation through interactions with CD94/NKG2A and CD94/NKG2C. To investigate, we performed cell-based activation assays on primary NK cells (Fig. 4A). NK cells were co-incubated with peptide-pulsed HLA-E-expressing K562 cells, as described previously. The parental K562 human myelogenous leukemia cell line is a typical target to measure NK cell cytotoxicity and activation, allowing for assessment of both NKG2A-mediated inhibition and NKG2C-mediated activation. […] NKG2A^-/NKG2C^- NK cells served as internal control as these should be unaffected by peptide-HLA-E complexes (Supplemental Fig. 12).
(§2) Fig. 4 NK cell stimulation assays. Assessment of effects of peptides on NK cell activity through incubation of NK cells, peptides, and (A) K562/HLA-E or (B) RMA-S/HLA-E target cells. […] Replicates for individual peptides are from different donors, with solid black lines indicating mean values. […] Representative gating for NKG2A^+/NKG2C^- and NKG2A^-/NKG2C^+ NK cells is shown in Supplemental Fig. 14. Source data are provided as a Source Data file.
(§3) All analyses of human data were carried out in compliance with the relevant ethical regulations. Healthy blood donors gave informed consent at DRK Blutspendedienst Nord-Ost, Dresden, Germany, and buffy coats were obtained as approved by Charité ethics committee (EA4/059/17). PBMCs were isolated from human CMV-seropositive buffy coats by density centrifugation over Ficoll Paque Plus (GE Healthcare) and screened for the presence of NKG2C^+ NK cell expansions by flow cytometry to have sufficient frequencies of single-positive cells for parallel assessment of activation and inhibition via HLA-E[47]. Total NK cells from donors with NKG2C^+ expansions (>10% NKG2A^-/NKG2C^+ NK cells) were enriched with CD56 microbeads (Miltenyi Biotec) and cryopreserved in FBS with 10% v/v DMSO. After thawing, NK cells were washed with complete medium, stained with antibodies and Fixable Viability Dye eFluor 780 (Thermo Fisher) for 15 min at 4 °C in PBS, sorted as viable CD56^+ CD3^− cells, and rested in complete media overnight. […] Brefeldin A and Monensin (BD Biosciences) were added after a 1 h culture period. After an additional 5 h, the stimulation was stopped by centrifugation at 4 °C. Cells underwent surface staining, followed by fixation and intracellular staining using Inside Stain Kit (Miltenyi Biotec). Samples were analyzed by flow cytometry on an LSR Fortessa (BD Biosciences). Inhibition of NKG2A^+ NK cells and activation of NKG2C^+ NK cells was assessed by gating on the respective single-positive populations (Supplemental Fig. 14). Antibodies are listed in Supplemental Table 1: anti-human CD56 PE/Dazzle 594 (1:200 dilution), CD3 APC-eFluor 780 (1:50 dilution), anti-human CD159a (NKG2A) Biotin REAfinity (1:50 dilution), anti-human CD159c (NKG2C) PE REAfinity (1:100 dilution), anti-human CD107a (LAMP-1) Alexa Fluor 488 (1:400 dilution), anti-human IFN-γ PE-Vio 770 REAfinity (1:50 dilution), anti-human TNF-α Brilliant Violet 605 (1:50 dilution), anti-human CCL3 (MIP-1α) REAfinity (1:25 dilution).

[3] = test system: HLA-E; assay: Prometheus differential scanning fluorimetry of HLA-E with peptide; format: binding, human; conditions: refolded HLA-E*01:03/β2M 9 μg, 50x peptide to MHC ratio, high sensitivity capillary, 1 °C per minute 20-95 °C, first inflection point; DMSO control 33.8
Description: Differential scanning fluorimetry (DSF) experiments were performed with a Prometheus NanoTemper NT.48 (Munich, Germany) to measure protein stability, using intrinsic tryptophan fluorescence.
For these experiments, refolded empty HLA-E was generated. Human β2M plus a poly-histidine tag and HLA-E*01:03 extracellular α1, α2, and α3 domains plus an AviTag biotinylation tag were separately codon optimized for E. coli and cloned into the bacterial expression vector pET28a. Inclusion bodies for HLA-E and β2M were made in BL21 E. coli. Inclusion bodies were purified, homogenized, and dissolved, including denaturation in 8 M urea solution. Before refolding, each IB was mixed with an equal volume of Gdn-Cl solution (6 M Guanidine HCl, 500 mM Tris, 2 mM EDTA, 100 mM NaCl) and incubated overnight at 37 °C. β2M was injected dropwise with a 27-gauge needle into refolding buffer (100 mM pH 8.3 Tris, 400 mM L-arginine hydrochloride, 2 mM EDTA, 0.5 mM oxidized glutathione, 5 mM reduced glutathione, 0.2 mM PMSF) and incubated, stirring gently, at 4 °C for 1 h, after which an equal mass of HLA-E heavy chain was similarly injected. This solution incubated at 4 °C overnight, followed by two days of dialysis in 10 mM Tris + 50 mM NaCl. Protein was concentrated in 10 kDa molecular weight cutoff centrifugal concentrators and purified by size exclusion chromatography on an AKTAPURE FPLC (GE Healthcare, Chicago IL), using an S200 column followed by a S75 column.
Individual DSF reactions were set up with 9 μg of MHC and 100×, 50×, or 10× peptide to MHC ratio by molarity (peptides from GenScript). The final reaction volume was 20 μL and reaction mixtures were incubated at room temperature for 20–30 min.
Prometheus excitation power was set such that raw fluorescence counts were between 8000–15000 for each sample. Samples were heated at 1 °C per minute, from 20–95 °C. DSF measurements were taken in duplicate with high-sensitivity and standard capillaries. Melting temperatures were similar for a given peptide across conditions, and representative data from 50x ratio in high sensitivity capillary are presented. A secondary inflection point around 60 °C in most melts is consistent with melting of β2M[76]. […]
Supplemental Figure 9. Differential scanning fluorimetry data generated via Prometheus NanoTemper for predicted peptides with HLA-E. a) Raw 350/330 nm ratios and first derivative for samples. The second inflection point is consistent with β2M unfolding. b) Summary of Tm values for the first inflection point called by Prometheus software for these samples. […]

[4] = test system: NKG2A+/NKG2C- NK cells; assay: NK cell activation assay with peptide-pulsed K562/HLA-E cells, NKG2A+/NKG2C- NK cells; format: cell-based, human; conditions: K562/HLA-E target cells, 300 µM peptide ([…] µM BFAR263-271), E:T 2:1, 6 h; degranulation (CD107a), IFN-γ, TNF, CCL3; flow cytometry
Description: as §1, §2, §3

[5] = test system: NKG2C+ NK cells; assay: NK cell activation assay with peptide-pulsed RMA-S/HLA-E cells; format: cell-based, human
Description: as §2
In contrast to K562 cell lines which are targets for human NK cells, RMA-S cells (a TAP-deficient mouse cell line)[48] are inert to human NK cells and thus will not activate NK cells absent engagement of an activating receptor on the NK cells. […] We performed additional NK cell activation assays with RMA-S/HLA-E cells (Fig. 4B).
as §3

[6] = target: T1, CD94/NKG2A (Homo sapiens, UniProt P26715+Q13241); assay: Steady-state SPR of peptide-HLA-E single chain trimers with CD94/NKG2A; format: binding; conditions: SPR with CD94/NKG2A and CD94/NKG2C, Fig. 5B; taken as lower stability of the peptide-HLA-E complex
T1 construct: The C-terminus of human NKG2A or NKG2C ectodomain was connected via a GGSGGS linker to human CD94 ectodomain; AviTag biotinylation tag (C); poly-histidine tag (C); made in house; host or cells: baculovirus, High Five (Hi5) insect cells
T1 sequence (Q13241 whole entry, looked up, the tested form may be a part): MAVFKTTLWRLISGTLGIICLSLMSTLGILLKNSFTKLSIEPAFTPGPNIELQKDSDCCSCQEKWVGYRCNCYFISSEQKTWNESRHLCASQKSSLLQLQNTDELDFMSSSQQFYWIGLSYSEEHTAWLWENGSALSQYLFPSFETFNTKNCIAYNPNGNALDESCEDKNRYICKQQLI
T1 sequence (P26715 whole entry, looked up, the tested form may be a part): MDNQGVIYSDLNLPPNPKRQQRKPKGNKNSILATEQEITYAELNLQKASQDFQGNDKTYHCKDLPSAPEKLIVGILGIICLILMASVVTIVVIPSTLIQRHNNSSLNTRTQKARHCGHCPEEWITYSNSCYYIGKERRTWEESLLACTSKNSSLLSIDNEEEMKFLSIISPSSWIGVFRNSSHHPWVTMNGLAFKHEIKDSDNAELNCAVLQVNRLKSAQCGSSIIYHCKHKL
Description: Specifically, we measured CD94/NKG2A and CD94/NKG2C affinity for HLA-E complexed with three sets of peptides. […] Third, we included […] peptide as a positive control.
Steady-state surface plasmon resonance experiments were performed with a Biacore T200 instrument. CD94/NKG2x in HBS-EP+ buffer was injected as analyte in a concentration range of 0.1 μM to 102.4 μM and flow rate of 10 μL/min at 25 °C. Data was fit with Prism 9.4 (GraphPad Software Inc; San Diego CA) to a “one site, specific binding” model. Sensorgrams are included in Supplemental Fig. 13.
For investigating WN peptides, biotinylated pMHC was immobilized at approximately 400 Response Units (RU) on a Series S SA sensor chip (Cytiva). […] CD94/NKG2A was injected followed by CD94/NKG2C.
For investigating human-derived peptides, Series S CM5 chips (Cytiva) were coupled to neutravidin and utilized. Biotinylated pMHC was immobilized at approximately 400 RU. On one chip, […] CD94/NKG2A was injected followed by CD94/NKG2C. On a second chip, PISD55-63 HLA-E SCT, AKAP6_388-396 HLA-E SCT, GTF3C5_293-301 HLA-E SCT, and reference HLA-DR401 were immobilized. CD94/NKG2C was injected followed by CD94/NKG2A. Rmax, fit values were calculated by Biacore software. Rmax, theoretical values were calculated using the analyte/ligand mass ratio (0.66) multiplied by the amount of ligand coupled to the chip.

Sequence | stabilization of HLA-E surface expression [1] | activating effects on NKG2C+ cells [2] | Tm [3] [°C] | inhibitory effects on NKG2A+ cells [4] | NKG2C-mediated NK cell activation [5] | average percent CD107a+ ([5]; NKG2C+ NK cells with RMA-S/HLA-E cells, Fig. 4B, stated in author rebuttal) [%] | maximal response units (Rmax) compared to theoretical maximum [6]
QMPSRSLLF [CREB3L1_419-427] | strong binding that is weaker than VMAPRTLFL; also recorded: strong stabilization | strong activating effects | 46.2 | more moderate inhibitory effects | activation similar to the weaker positive control ([…]) or between the two positive controls |  | 
TGPWRSLWI [GTF3C5_293-301, human peptide from General transcription factor 3C polypeptide 5] | weak but detectable stabilization | clear activating effects |  | minimal inhibitory effects | detectable activation, though below both positive control examples | 11.1 | lower maximal values compared to the theoretical maximum
VLPHRTQFL [UL120_72-80, Merlin, CMV peptide from Membrane protein UL120, strain Merlin] | strong binding that is weaker than VMAPRTLFL; also recorded: strong HLA-E binding | strong activating effects | 45.7 | strong inhibitory effects | activation similar to the weaker positive control ([…]) or between the two positive controls |  | 
